27 molecules from patent US10342758B2, “Cationic lipid” (Kyowa Hakko Kirin Co., Ltd., priority 2012, dated 2019) can be followed below.

The nature of this data set: Average particle diameter of preparation (Zetasizer Nano ZS). The class given is physicochemical. To be noted: preparation with f7 siRNA. On the procedure:
The average particle diameter of each preparation (composition) was measured using a particle diameter measurement device (Zetasizer Nano ZS, manufactured by Malvern, hereafter the same).
The average particle diameter of each preparation (composition) was measured using a particle diameter measurement device.
Each sample was weighed and suspended in an aqueous solution containing hydrochloric acid and ethanol so that the ratio of Compound A-1/PEG-DMPE Na (manufactured by NOF Corporation) was 57.3/5.52 mmol/L, and then, the resulting mixture was repeatedly subjected to stirring using a vortex stirring mixer and heating, whereby a uniform suspension was obtained. This suspension was passed through a 0.2-μm polycarbonate membrane filter and thereafter passed through a 0.05-μm polycarbonate membrane filter at room temperature, whereby a dispersion liquid of particles (liposome) of Compound A-1/PEG-DMPE Na was obtained. The average particle diameter of the obtained liposome was measured using a particle diameter measuring apparatus to confirm that the average particle diameter was within the range from 30 nm to 100 nm. In the obtained dispersion liquid of liposome, the f7 siRNA solution was mixed at a ratio of the dispersion liquid of liposome to the fl siRNA solution of 3:1, and then, distilled water that was three times the amount was added thereto and mixed therewith, whereby a dispersion liquid of Compound A-1/PEG-DMPE Na/f7 siRNA complex was prepared.
The average particle diameter of the preparation (composition) was measured using a particle diameter measurement device.

The mark [1] stands for this setting: compound/PEG-DMPE Na/DSPC/cholesterol, Examples 50, 51 / Comparative Example 2.
Setting [2] is: liposome/siRNA complex encapsulated by lipid membrane, Examples 52, 53 / Comparative Example 3.
Setting [3] is: compound/PEG-DMPE Na/DSPC/cholesterol=7.030/0.755/2.038/4.892 mmol/L, Example 54.

On to `CCCCC/C=C\C/C=C\CCCCCCCCOCCN(CCCCCCCC/C=C\C/C=C\CCCCC)C(=O)OCCC1CCCN1C` (centres unmarked) [Compound A-30], for which the “Particle diameter of Preparation obtained” value (“Particle diameter” for short) runs as follows: under setting [1], 130.4 nm; under setting [2], 106.2 nm.

With `CCCCC/C=C\C/C=C\CCCCCCCCCCN(CCCCCCCCCC/C=C\C/C=C\CCCCC)C(=O)OCCC1CCCN1C` (centres unmarked) [Compound A-19, 2-(1-Methylpyrrolidin-2-yl)ethyl di((11Z,14Z)-icosa-11,14-dienyl)carbamate], the “Particle diameter” value by setting is: under setting [1], 140.0 nm; under setting [2], 91.4 nm.

Turning to `CCCCC/C=C\C/C=C\CCCCCCCCN(CCO)CCCCCCCC/C=C\C/C=C\CCCCC` [Compound C-4, 2-(Di((9Z,12Z)-octadeca-9,12-dienyl)amino)ethanol], the “Particle diameter” value reads like this: under setting [1], 137.3 nm; under setting [2], 98.8 nm.

As to `CCCCC/C=C\C/C=C\CCCCCCCCN(CCCCCCCC/C=C\C/C=C\CCCCC)C(=O)OCC1CCCCN1C` (centres unmarked) [Compound A-16, (1-Methylpiperidin-2-yl)methyl di((9Z,12Z)-octadeca-9,12-dien-1-yl)carbamate], the “Particle diameter” value under setting [1] is recorded as 133.4 nm and the “Particle diameter” value under setting [2] came to 105.5 nm.

`CCCCC/C=C\C/C=C\CCCCCCCCNCCCCCCCC/C=C\C/C=C\CCCCC` [Compound B-1, Di((9Z,12Z)-octadeca-9,12-dienyl)amine]: the “Particle diameter” value under setting [1] is 160.6 nm.

Take `CCCCC/C=C\C/C=C\CCCCCCCCN(CCCO)CCCCCCCC/C=C\C/C=C\CCCCC` [Compound C-1, 3-(Di((9Z,12Z)-octadeca-9,12-dienyl)amino)propan-1-ol]: the “Particle diameter” value reads like this: under setting [1], 124.3 nm; under setting [2], 88.3 nm.

Take `CCCCC/C=C\C/C=C\CCCCCCCCN(CCCCCCCC/C=C\C/C=C\CCCCC)C(=O)OCCCN1CCCCC1` [Compound A-7, 3-(Piperidin-1-yl)propyl di((9Z,12Z)-octadeca-9,12-dienyl)carbamate]: the “Particle diameter” value came to 123.3 nm under setting [3] and 94.6 nm under setting [2].

For the molecule `CCCCC/C=C\C/C=C\CCCCCCCCN(CCCCCCCC/C=C\C/C=C\CCCCC)C(=O)OCCCN(C)C` [Compound A-1, 3-(Dimethylamino) propyl di((9Z,12Z)-octadeca-9,12-dienyl)carbamate], the “Particle diameter” value is, setting by setting: under setting [3], 113.0 nm; under setting [2], 95.9 nm.

For `CCCCC/C=C\C/C=C\CCCCCCCCN(CCCCCCCC)C(=O)OCCCN(C)C` [Compound A-11, 3-(Dimethylamino)propyl ((9Z,12Z)-octadeca-9,12-dienyl)(octyl)carbamate], the “Particle diameter” value under setting [1] came to 153.4 nm.

With `CCCCC/C=C\C/C=C\CCCCCCCCN(CCOCCCCCCCC/C=C\CCCCCCCC)C(=O)OCCCN(C)C` [Compound A-35, 3-(Dimethylamino)propyl (2-((Z)-octadec-9-enyloxy)ethyl)((9Z,12Z)-octadeca-9,12-dienyl)carbamate], the “Particle diameter” value reads like this: under setting [1], 137.8 nm; under setting [2], 115.4 nm.

As for `CCCCC/C=C\C/C=C\CCCCCCCCO[C@@H]1CN(CCCO)C[C@H]1OCCCCCCCC/C=C\C/C=C\CCCCC` [Compound XI-8, 3-((3R,4R)-3,4-Bis((9Z,12Z)-octadeca-9,12-dienyloxy)pyrrolidin-1-yl)propan-1-ol, reference compound], under setting [1], the “Particle diameter” value is reported as 128.0 nm.

In the case of `CCCCC/C=C\C/C=C\CCCCCCCCCCN(CCCO)CCCCCCCCCC/C=C\C/C=C\CCCCC` [Compound C-3, 3-(Di((11Z,14Z)-icosa-11,14-dienyl)amino)propan-1-ol], the “Particle diameter” value is reported as 138.4 nm under setting [1] and 94.1 nm under setting [2].

Take `CCCCC/C=C\C/C=C\CCCCCCCCN(CCCCCCCC/C=C\C/C=C\CCCCC)C(=O)OCCN(C)C` [Compound A-5, 2-(Dimethylamino)ethyl di((9Z,12Z)-octadeca-9,12-dienyl)carbamate]: the “Particle diameter” value under setting [1] stood at 139.2 nm and the “Particle diameter” value under setting [2] was determined as 93.4 nm.

Regarding `CCCCC/C=C\C/C=C\CCCCCCCCN(CCCCCCCCCCCC)C(=O)OCCCN(C)C` [Compound A-9, 3-(Dimethylamino)propyl dodecyl((9Z,12Z)-octadeca-9,12-dienyl) carbamate], the “Particle diameter” value under setting [1] is on record as 116.4 nm.

Regarding `CCCCC/C=C\C/C=C\CCCCCCCCOCCN(CCOCCCCCCCC/C=C\C/C=C\CCCCC)C(=O)OCCCN(C)C` [Compound XI-5, 3-(Dimethylamino)propyl bis(2-((9Z,12Z)-octadeca-9,12-dienyloxy)ethyl)carbamate, reference compound], the “Particle diameter” value under setting [1] is 114.1 nm.

Regarding `CCCCCCCC/C=C\CCCCCCCCN(CCCCCCCC/C=C\CCCCCCCC)C(=O)OCCC1CCCN1C` (centres unmarked) [Compound A-17, 2-(1-Methylpyrrolidin-2-yl)ethyl di((Z)-octadec-9-enyl)carbamate], the “Particle diameter” value amounted to 129.1 nm under setting [1] and 101.4 nm under setting [2].

Take `CCCCC/C=C\C/C=C\CCCCCCCCN(CCCCCCCC/C=C\C/C=C\CCCCC)C(=O)OCCCN1CCCCCCC1` [Compound A-28]: the “Particle diameter” value runs as follows: under setting [1], 132.0 nm; under setting [2], 111.3 nm.

`CCCCC/C=C\C/C=C\CCCCCCCCN(CCOCCCCCCCC/C=C\CCCCCC)C(=O)OCCCN(C)C` [Compound A-36, 3-(Dimethylamino)propyl (2-((Z)-hexadec-9-enyloxy)ethyl)((9Z,12Z)-octadeca-9,12-dienyl)carbamate]: the “Particle diameter” value was 126.5 nm under setting [1] and 127.2 nm under setting [2].

Take `CCCCC/C=C\C/C=C\CCCCCCCCOCCN(CCCCCCCC/C=C\C/C=C\CCCCC)C(=O)OCCCN1CCCCC1` [Compound A-29, 3-(Piperidin-1-yl)propyl ((9Z,12Z)-octadeca-9,12-dienyl)(2-((9Z,12Z)-octadeca-9,12-dienyloxy)ethyl)carbamate]: the “Particle diameter” value was determined as 130.6 nm under setting [1] and 103.4 nm under setting [2].

As to `CCCCC/C=C\C/C=C\CCCCCCCCN(CCCCCCCC/C=C\C/C=C\CCCCC)C(=O)OCCCCN(C)C` [Compound A-13, 4-(Dimethylamino)butyl di((9Z,12Z)-octadeca-9,12-dienyl)carbamate], the “Particle diameter” value came out at 135.0 nm under setting [1] and 103.1 nm under setting [2].

In the case of `CCCCCCCC/C=C\CCCCCCCCN(CCCO)CCCCCCCC/C=C\CCCCCCCC` [Compound C-2, 3-(Di((Z)-octadec-9-enyl)amino)propan-1-ol], the “Particle diameter” value by setting is: under setting [1], 125.4 nm; under setting [2], 91.9 nm.

Consider `CCCCC/C=C\C/C=C\CCCCCCCCOCCN(CCCCCCCC/C=C\C/C=C\CCCCC)C(=O)OCCCN(C)C` [Compound A-12, 3-(Dimethylamino)propyl ((9Z,12Z)-octadeca-9,12-dienyl)(2-((9Z,12Z)-octadeca-9,12-dienyloxy)ethyl)carbamate], for which the “Particle diameter” value is, setting by setting: under setting [1], 133.0 nm; under setting [2], 111.5 nm.

For `CCCCC/C=C\C/C=C\CCCCCCCCCCN(CCCCCCCCCC/C=C\C/C=C\CCCCC)C(=O)OCC1CCCN(C)C1` (centres unmarked) [Compound A-20, (1-Methylpiperidin-3-yl)methyl di((11Z,14Z)-icosa-11,14-dienyl)carbamate], the “Particle diameter” value runs as follows: under setting [1], 145.1 nm; under setting [2], 95.7 nm.

In the case of `CCCCC/C=C\C/C=C\CCCCCCCCN(CCCCCCCC/C=C\C/C=C\CCCCC)C(=O)OCCC1CCCN1C` (centres unmarked) [Compound A-6, 2-(1-Methylpyrrolidin-2-yl)ethyl di((9Z,12Z)-octadeca-9,12-dienyl)carbamate], the “Particle diameter” value under setting [2] is listed as 93.6 nm.

As for `CCCCC/C=C\C/C=C\CCCCCCCCN(CCOCCCCCCCC/C=C\CCCCCCCC)C(=O)OCCC1CCCN1C` (centres unmarked) [Compound A-34, 2-(1-Methylpyrrolidin-2-yl)ethyl (2-((Z)-octadec-9-enyloxy)ethyl)((9Z,12Z)-octadeca-9,12-dienyl)carbamate], the “Particle diameter” value by setting is: under setting [1], 140.2 nm; under setting [2], 92.6 nm.

For the molecule `CCCCC/C=C\C/C=C\CCCCCCCCOCCN(CCCCCCCC/C=C\C/C=C\CCCCC)C(=O)OCCCN1CCCCCC1` [Compound A-31, 3-(Azepan-1-yl)propyl ((9Z,12Z)-octadeca-9,12-dienyl) (2-((9Z,12Z)-octadeca-9,12-dienyloxy)ethyl)carbamate], the “Particle diameter” value is 139.1 nm under setting [1] and 102.2 nm under setting [2].

Take `CCCCC/C=C\C/C=C\CCCCCCCCOCC(CN(C)C(=O)OCCCN(C)C)OCCCCCCCC/C=C\C/C=C\CCCCC` (centres unmarked) [Compound XI-9, 3-(Dimethylamino)propyl 2,3-bis((9Z,12Z)-octadeca-9,12-dienyloxy)propyl(methyl)carbamate, reference compound]: the “Particle diameter” value under setting [2] is 116.2 nm.
